From patent US20210253642A1, “CALPAIN MODULATORS AND THERAPEUTIC USES THEREOF BACKGROUND” (Blade Therapeutics, Inc., priority 2018, published 2021) come the findings set out here.

What all share (format): biochemical
One assay addresses T1, Human Calpain 2/NS1 (Homo sapiens, UniProt P17655).
T1 sequence (P17655 1-700): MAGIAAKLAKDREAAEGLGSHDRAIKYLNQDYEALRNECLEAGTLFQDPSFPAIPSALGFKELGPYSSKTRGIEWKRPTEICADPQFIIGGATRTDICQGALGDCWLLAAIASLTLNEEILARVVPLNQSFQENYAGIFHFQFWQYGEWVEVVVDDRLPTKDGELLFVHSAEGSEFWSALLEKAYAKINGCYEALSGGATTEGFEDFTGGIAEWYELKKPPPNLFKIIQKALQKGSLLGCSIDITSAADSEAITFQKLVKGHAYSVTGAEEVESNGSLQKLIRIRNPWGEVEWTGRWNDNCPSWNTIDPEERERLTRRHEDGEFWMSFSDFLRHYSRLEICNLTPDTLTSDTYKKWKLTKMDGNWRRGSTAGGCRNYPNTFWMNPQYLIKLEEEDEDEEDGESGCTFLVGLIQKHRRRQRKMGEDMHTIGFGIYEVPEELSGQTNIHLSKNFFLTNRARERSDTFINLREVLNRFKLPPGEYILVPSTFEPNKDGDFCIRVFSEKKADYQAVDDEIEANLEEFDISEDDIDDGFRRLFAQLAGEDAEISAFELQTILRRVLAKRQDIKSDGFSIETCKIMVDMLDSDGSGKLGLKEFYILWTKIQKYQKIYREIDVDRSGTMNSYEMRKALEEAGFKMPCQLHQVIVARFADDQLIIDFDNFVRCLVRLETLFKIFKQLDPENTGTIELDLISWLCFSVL
T1 sequence (P04632 1-268 partner): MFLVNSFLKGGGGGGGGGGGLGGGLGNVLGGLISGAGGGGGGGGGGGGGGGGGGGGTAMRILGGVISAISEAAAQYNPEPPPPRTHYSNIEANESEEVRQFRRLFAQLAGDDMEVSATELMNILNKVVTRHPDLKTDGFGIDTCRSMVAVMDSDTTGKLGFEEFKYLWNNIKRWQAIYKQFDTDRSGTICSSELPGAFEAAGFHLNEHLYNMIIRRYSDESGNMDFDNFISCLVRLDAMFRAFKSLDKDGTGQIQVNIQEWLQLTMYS
As to the kind of experiment: Calpain continuous fluorescence (FRET) inhibition assay. The following applies: Column B; SensoLyte 520 FRET substrate, pH 7.5, 25C. The method, then: (§1) Calpain 1, 2, and 9 activity and inhibition thereof was assessed by means of a continuous fluorescence assay. The SensoLyte 520 Calpain substrate (Anaspec Inc.) was optimized for detecting calpain activity. This substrate contains an internally quenched 5-FAM/QXLTM 520 FRET pair. Calpains 1, 2, and 9 cleave the FRET substrate into two separate fragments resulting in an increase of 5-FAM fluorescence that is proportional to calpain activity
(§2) Assays were typically setup in black 384-well plates using automated liquid handling as follows. Calpain assay base buffer typically contains 50 mM Tris, pH 7.5, 100 mM NaCl and 1 mM DTT. Inhibitors were serially diluted in DMSO and used to setup 2× mixtures with calpains in the aforementioned buffer. After incubation at ambient temperature (25C), the reaction was initiated by adding a 2× mix of the fluorescent peptide substrate and CaCl2) (required for in-situ calpain activation) in the same buffer. Reaction progress curve data were typically collected for 10 min using excitation/emission wavelengths of 490 nm/520 nm on SpectraMax i3x or the FLIPR-Tetra plate readers (Molecular Devices Inc.). Reaction rates were calculated from progress curve slopes typically over 1-5 min. Dose response curves (rate vs. log inhibitor concentration) were typically fit to a 4-parameter logistic function to extract IC50 values.

For a further assay, the target named is T2, Human Calpain 1/NS1 (Homo sapiens, UniProt P07384).
T2 sequence (P07384 1-714): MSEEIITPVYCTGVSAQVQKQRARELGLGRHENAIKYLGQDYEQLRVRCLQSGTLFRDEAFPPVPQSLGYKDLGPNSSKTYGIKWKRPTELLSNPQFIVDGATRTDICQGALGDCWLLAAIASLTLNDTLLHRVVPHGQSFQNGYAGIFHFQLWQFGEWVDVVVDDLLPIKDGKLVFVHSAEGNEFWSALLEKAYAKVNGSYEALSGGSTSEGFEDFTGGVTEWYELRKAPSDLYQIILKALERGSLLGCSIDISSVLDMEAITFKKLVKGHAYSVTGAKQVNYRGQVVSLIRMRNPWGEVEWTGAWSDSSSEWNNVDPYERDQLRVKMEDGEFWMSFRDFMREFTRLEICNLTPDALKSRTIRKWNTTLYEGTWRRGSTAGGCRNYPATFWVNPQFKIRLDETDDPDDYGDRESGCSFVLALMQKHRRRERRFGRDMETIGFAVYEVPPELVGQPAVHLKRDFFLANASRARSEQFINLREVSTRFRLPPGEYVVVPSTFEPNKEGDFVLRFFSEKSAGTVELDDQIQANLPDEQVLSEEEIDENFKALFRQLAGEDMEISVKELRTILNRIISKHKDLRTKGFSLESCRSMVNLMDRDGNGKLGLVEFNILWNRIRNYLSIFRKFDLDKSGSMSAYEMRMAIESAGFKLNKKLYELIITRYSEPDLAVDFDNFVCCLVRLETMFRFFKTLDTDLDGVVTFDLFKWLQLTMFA
T2 sequence (P04632 1-268 partner): T1 sequence (P04632 1-268 partner)
The assay is described as above. The following applies: Column A; SensoLyte 520 FRET substrate, pH 7.5, 25C. The method, then:
as §1, §2

In a further assay the target is T3, Human Calpain 9/NS1 (Homo sapiens, UniProt O14815).
T3 sequence (O14815 1-690): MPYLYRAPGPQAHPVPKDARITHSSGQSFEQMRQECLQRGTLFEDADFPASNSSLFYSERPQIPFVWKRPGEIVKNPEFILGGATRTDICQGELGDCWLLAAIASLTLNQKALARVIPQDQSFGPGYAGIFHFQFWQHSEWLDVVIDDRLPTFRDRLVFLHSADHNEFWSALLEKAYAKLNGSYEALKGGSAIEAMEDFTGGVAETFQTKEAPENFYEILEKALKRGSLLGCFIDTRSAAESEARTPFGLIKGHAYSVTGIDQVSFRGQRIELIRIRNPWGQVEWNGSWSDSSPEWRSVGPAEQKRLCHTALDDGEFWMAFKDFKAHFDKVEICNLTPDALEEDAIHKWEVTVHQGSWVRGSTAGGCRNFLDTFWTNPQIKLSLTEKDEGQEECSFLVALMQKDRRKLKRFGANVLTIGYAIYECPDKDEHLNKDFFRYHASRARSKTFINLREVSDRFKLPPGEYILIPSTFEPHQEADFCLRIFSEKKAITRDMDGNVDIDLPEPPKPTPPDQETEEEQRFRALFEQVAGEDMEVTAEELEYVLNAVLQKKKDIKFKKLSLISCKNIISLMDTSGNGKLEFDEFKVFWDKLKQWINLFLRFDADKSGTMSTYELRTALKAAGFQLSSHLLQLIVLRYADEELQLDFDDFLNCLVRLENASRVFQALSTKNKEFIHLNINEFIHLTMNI
T3 sequence (P04632 1-268 partner): T1 sequence (P04632 1-268 partner)
The description is as above. As to conditions: Column C; SensoLyte 520 FRET substrate, pH 7.5, 25C. The method, then:
as §1, §2

In the next assay the target is T4, Human Cathepsin K (Homo sapiens, UniProt P43235).
T4 construct: purchased
T4 sequence (P43235 115-329): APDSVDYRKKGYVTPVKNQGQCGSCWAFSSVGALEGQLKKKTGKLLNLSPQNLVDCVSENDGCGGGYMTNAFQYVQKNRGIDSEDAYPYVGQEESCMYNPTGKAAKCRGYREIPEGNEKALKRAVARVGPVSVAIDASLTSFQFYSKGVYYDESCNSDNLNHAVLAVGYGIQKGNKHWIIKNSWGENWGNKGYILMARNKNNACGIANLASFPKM
As to the kind of experiment: Cathepsin continuous fluorescence inhibition assay. As to conditions: Column E; enzyme 10 nM, substrate 1 uM, pH 5.5, 30 minutes pre-incubation with inhibitor. The method, then: (§3) Cathepsin activity and inhibition thereof was assessed by means of a continuous fluorescence assay. All assays were run in 384 well format and utilized peptide substrates that liberate fluorescence upon protease catalyzed cleavage. FLIPR plate readers (Molecular Devices Inc.) were used to monitor reactions and extract initial rates which were then fit (four parameter logistic function) to obtain IC50 values. All enzymes are human. All enzymes and reagents were obtained commercially and are summarized in Tables 1 and 2 below along with assay conditions.

For another assay, the target named is T5, Human Cathepsin S (Homo sapiens, UniProt P25774).
T5 construct: purchased
Description: Cathepsin continuous fluorescence inhibition assay. As to conditions: Column F; enzyme 6 nM, substrate 1 uM, pH 4.5, 30 minutes pre-incubation with inhibitor. The method, then: as §3

A further assay concerns the target T6, Human Cathepsin B (Homo sapiens, UniProt P07858).
T6 construct: purchased
Description: Cathepsin continuous fluorescence inhibition assay. The following applies: Column D; enzyme 25 nM, substrate 1 uM, pH 5.0, 30 minutes pre-incubation with inhibitor. As to the method: as §3

The next assay deals with T7, Human Cathepsin L (Homo sapiens, UniProt P07711).
T7 construct: purchased
As to the kind of experiment: Cathepsin continuous fluorescence inhibition assay. As to conditions: Column G; enzyme 0.025 nM, substrate 1 uM, pH 6.0, 30 minutes pre-incubation with inhibitor. As to the method: as §3

T7 sequence (P07711 114-333): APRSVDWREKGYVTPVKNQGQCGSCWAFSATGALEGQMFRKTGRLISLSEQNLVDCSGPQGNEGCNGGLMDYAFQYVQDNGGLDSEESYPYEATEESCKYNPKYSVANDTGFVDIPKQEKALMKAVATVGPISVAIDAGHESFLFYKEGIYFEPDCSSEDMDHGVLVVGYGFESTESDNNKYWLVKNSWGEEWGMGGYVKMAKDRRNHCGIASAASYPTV
T5 sequence (P25774 115-331): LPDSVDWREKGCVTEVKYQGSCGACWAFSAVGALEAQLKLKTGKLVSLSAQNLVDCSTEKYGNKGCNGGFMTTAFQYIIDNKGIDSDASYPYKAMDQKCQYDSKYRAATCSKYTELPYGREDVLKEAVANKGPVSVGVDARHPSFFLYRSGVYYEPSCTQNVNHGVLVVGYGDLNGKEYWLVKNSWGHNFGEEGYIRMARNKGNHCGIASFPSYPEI

As for `CCCCCC/C=C\CC(=O)NCC(=O)N[C@H](C(=O)N[C@@H]1/C=C/C(=O)N[C@@H](C(C)C)C(=O)N[C@@H](Cc2ccc(O)cc2)C(=O)OC1)C(C)C` [Compound 10, (Z)—N-(2-(((S)-1-(((3S,6S,11R,E)-3-(4-hydroxybenzyl)-6-isopropyl-2,5,8-trioxo-1-oxa-4,7-diazacyclododec-9-en-11-yl)amino)-3-methyl-1-oxobutan-2-yl)amino)-2-oxoethyl)dec-3-enamide], the IC50 at Human Calpain 2/NS1 was below 3 µM; at Human Calpain 1/NS1, below 3 µM; against Human Calpain 9/NS1 it was above 10 µM; at Human Cathepsin K it was below 3 µM; against Human Cathepsin S, below 3 µM; on Human Cathepsin B, below 3 µM. The compound also registered an IC50 against Human Cathepsin L below 3 µM.

For `CC(C)[C@@H]1NC(=O)/C=C/[C@@H](NC(=O)[C@H](C)NC(=O)OC(C)(C)C)COC(=O)[C@H](Cc2ccc(O)cc2)NC1=O` [Compound 13, tert-butyl ((s)-1-(((3S,6S,11R,E)-3-(4-hydroxybenzyl)-6-isopropyl-2,5,8-trioxo-1-oxa-4,7-diazacyclododec-9-en-11-yl)amino)-1-oxopropan-2-yl)carbamate], the IC50 is above 10 µM against Human Calpain 2/NS1; above 10 µM at Human Calpain 1/NS1; above 10 µM against Human Calpain 9/NS1; below 3 µM at Human Cathepsin K; below 3 µM against Human Cathepsin S; below 3 µM against Human Cathepsin B. This compound also gave an IC50 at Human Cathepsin L below 3 µM.

As to `CC(C)[C@@H]1NC(=O)/C=C/[C@@H](NC(=O)[C@@H](NC(=O)OCc2ccccc2)C(C)C)COC(=O)[C@H](Cc2ccc(O)cc2)NC1=O` [Compound 9, Benzyl ((s)-1-(((3S,6S,11R,E)-3-(4-hydroxybenzyl)-6-isopropyl-2,5,8-trioxo-1-oxa-4,7-diazacyclododec-9-en-11-yl)amino)-3-methyl-1-oxobutan-2-yl)carbamate], the IC50 at Human Calpain 2/NS1 was below 3 µM; at Human Calpain 1/NS1, 3 to 10 µM; against Human Calpain 9/NS1, above 10 µM; against Human Cathepsin K, below 3 µM; at Human Cathepsin S, below 3 µM; on Human Cathepsin B, below 3 µM. In addition, on Human Cathepsin L, the IC50 is below 3 µM.

For `CC(C)[C@@H]1NC(=O)/C=C/[C@@H](NC(=O)[C@@H](NC(=O)CNC(=O)OC(C)(C)C)C(C)C)COC(=O)[C@H](Cc2ccc(O)cc2)NC1=O` [Compound 7, tert-butyl (2-(((s)-1-(((3S,6S,11R,E)-3-(4-hydroxybenzyl)-6-isopropyl-2,5,8-trioxo-1-oxa-4,7-diazacyclododec-9-en-11-yl)amino)-3-methyl-1-oxobutan-2-yl)amino)-2-oxoethyl)carbamate], the IC50 against Human Calpain 2/NS1 is 3 to 10 µM; on Human Calpain 1/NS1, 3 to 10 µM; on Human Calpain 9/NS1 it was above 10 µM; on Human Cathepsin K, below 3 µM; against Human Cathepsin S, below 3 µM; at Human Cathepsin B, below 3 µM. On Human Cathepsin L, this compound yielded an IC50 below 3 µM.

Regarding `CC(C)[C@@H]1NC(=O)/C=C/[C@@H](NC(=O)[C@H](Cc2ccccc2)NC(=O)OC(C)(C)C)COC(=O)[C@H](Cc2ccc(O)cc2)NC1=O` [Compound 14, tert-butyl ((s)-1-(((3S,6S,11R,E)-3-(4-hydroxybenzyl)-6-isopropyl-2,5,8-trioxo-1-oxa-4,7-diazacyclododec-9-en-11-yl)amino)-1-oxo-3-phenylpropan-2-yl)carbamate], the IC50 was above 10 µM against Human Calpain 2/NS1; above 10 µM at Human Calpain 1/NS1; above 10 µM against Human Calpain 9/NS1; below 3 µM against Human Cathepsin K; below 3 µM at Human Cathepsin S; 3 to 10 µM against Human Cathepsin B. At Human Cathepsin L, this compound came in with an IC50 below 3 µM.

Consider `CC(C)[C@@H]1NC(=O)/C=C/[C@@H](N)COC(=O)[C@H](Cc2ccc(O[Si](C)(C)C(C)(C)C)cc2)NC1=O` [Compound 4, (3S,6S,11R,E)-11-amino-3-(4-((tert-butyldimethylsilyl)oxy)benzyl)-6-isopropyl-1-oxa-4,7-diazacyclododec-9-ene-2,5,8-trione], for which the IC50 at Human Calpain 2/NS1 is above 10 µM; against Human Calpain 1/NS1 it was above 10 µM; against Human Calpain 9/NS1, above 10 µM; on Human Cathepsin K, below 3 µM; on Human Cathepsin S it was 3 to 10 µM; on Human Cathepsin B, above 10 µM. Also, at Human Cathepsin L, the IC50 lay in the range of 3 to 10 µM.
